Results from publication PMC8397418, “Novel Bis-Thiazole Derivatives: Synthesis and Potential Cytotoxic Activity Through Apoptosis With Molecular Docking Approaches” (Frontiers in Chemistry, 2021).

Assays:
[1] = tested on: MCF-7 breast cancer cells; test: MTT cytotoxicity assay, MCF-7; type: cell-based, human; settings: Homo sapiens, MCF7; MTT, 72 h, n = 3; read-out: IC50 MCF-7 (Breast)
Experimental: (§1) The synthesized derivatives were screened for their cytotoxic activities against five cancer cell lines (two breast cancer cell lines: MCF-7 and MDA-MB-231, two ovarian cancer cell lines: A2780 and KF-28, and one cervical cancer cell line: Hela). This study was performed using serial concentrations of 25, 50, 100, 150, and 200 µM of each compound using the MTT assay. Percentages of cell viability of the tested compounds with serial concentration against the tested panel of cell lines are depicted in Figure 1, in which there is a decrease in the cell viability with increasing concentrations in a dose–response pattern. […] Therefore, compounds 5a, 5b, and 5f were thought worthwhile to further investigate their effects as either cytotoxic or antiproliferative effects and whether any of them is an inducer of apoptotic cell death in the representative cancer cell lines KF-28 and A2780.
(§2) The human ovarian serous carcinoma cell line KF-28 was kindly provided by Prof. Yoshihiro Kikuchi (Department of Obstetrics and Gynecology, National Defense Medical College, Saitama, Japan), and A2780 cell line was purchased from the ECACC (ECACC 93112519). The cells were maintained in RPMI-1640 (Sigma-Aldrich, United States). The cervical cancer cell line, Hela cells, breast cancer cell line, MCF-7, and MDA-MB-231 were purchased from the ATCC and cultured in DMEM. Both types of media were supplemented with 2 mM L-glutamine (Lonza, Belgium), 10% FBS (Sigma, St. Louis, MO, United States), and 1% penicillin/streptomycin (Lonza, Belgium). All cells were incubated at 37°C in 5% CO2 atmosphere (NuAire). All cancer cell lines were cultured according to the routine tissue culture work as discussed by the Freshney group ([Freshney, 2010]). The cells were plated at a density of 5,000 cells in triplicates in a 96-well plate. On the next day, the cells were treated with the indicated compound(s) at the indicated concentrations in a final volume of 100 μL media. Cell viability was assessed after 72 h using MTT solution (Promega) ([Mosmann, 1983]). 20 μL of the reagent was added to each well, the plate was incubated for 3 h, […] was subsequently measured (570 nm) using a plate reader, and then the IC50 values were calculated using Excel ([Tantawy et al., 2020]).

KF-28 cells [2] = test: Annexin V-FITC/PI apoptosis assessment; type: cell-based, human; settings: 48 h, cisplatin 10 μM, DMSO control 0.45%
Experimental: Therefore, we decided to use such technique to investigate if the cytotoxic effect of the compounds indicated by MTT and the cell cycle experiments is apoptotic cell death or not. For that purpose, two cell lines, KF-28 and A2780, were stained by annexin V/PI after treatment with different compounds vs. DMSO for two days in parallel with cisplatin as a reference drug. Results from annexin staining analysis show appreciated annexin V–stained populations when cells are treated with compounds 5a–c, 5f, and 9. […] Similar results were obtained from the other cell line, A2780, treated with the same compounds (Figure 2B).
The cells were seeded into six-well culture plates (3–5 × 10^5 cells/well) and incubated overnight at 37°C, under 5% CO2. The cells were then treated with indicated compounds for 48 h. Next, media supernatants and the cells were collected and washed with ice-cold PBS. Next, the cells were stained with PI (10 mg/ml) for 30 min and analyzed for DNA contents using flow cytometry analysis using an FL2 (λex/em 535/617 nm) signal detector (ACEA Novocyte™ flow cytometer, ACEA Biosciences, Inc., San Diego, CA, United States). For each sample, 12,000 events are acquired. Cell cycle distribution is calculated using a CytoFLex machine and analyzed by CytExpert software. Flow cytometric methodologies (annexin V/PI staining with cell cycle analyses) are carried out as previously described ([Nafie et al., 2020a]; [Nafie et al., 2020b]; [Gad et al., 2020]).

[3] = tested on: MEF normal mouse embryonic fibroblast; test: MTT cytotoxicity assay, MEF; type: cell-based; settings: n = 3
[4] = tested on: Hela cervical cancer cells; test: MTT cytotoxicity assay, Hela; type: cell-based; settings: Homo sapiens, MTT, 72 h, n = 3, read-out: IC50 Hela (Cervical)
Experimental: as §1, §2

[5] = tested on: A2780 ovarian cancer cells; test: MTT cytotoxicity assay, A2780; type: cell-based, human; settings: Homo sapiens, A2780; MTT, 72 h, n = 3; read-out: IC50 A2780 (Ovarian)
Experimental: as §1, §2

KF-28 cells [6] = test: Quantitative RT-PCR of apoptosis-related genes; type: cell-based, human; settings: 48 h
Experimental: Next, we investigated the pathway through which apoptosis is induced by compounds 5a, 5b, and 5f in KF-28 cells. For that purpose, after treating cells with each compound, RNA was extracted, cDNA was synthesized, and RT-PCR was performed to quantify the mRNA expression of pro-apoptotic genes (p53, bax, puma), caspases 3, 8 9, anti-apoptotic gene (Bcl-2), and Pim-1 kinase genes in KF-28 cells.
The cells were grown in 10 cm^2 culture dishes to a monolayer with a confluence of 90% in triplicates. After different treatments, the cells were washed twice with PBS and then pelleted by centrifugation for 5 min at 1800 rpm at 4°C. The cells were lysed by Trizol reagent (Invitrogen), and then total RNA was purified with the phenol/chloroform extraction method. Concentration and purity of RNA samples were measured using NanoDrop. The RNA purity was assessed as OD260/OD230 (≥1.5) using NanoDrop. gDNA was eliminated by DNase. The RNA from three biological samples was then pooled for mRNA analysis, cDNA was synthesized using the iScript kit (Bio-Rad, United States) according to the manufacturer’s recommendation, and RT-PCRs consisted of 8.34 µL Fluocycle® II SYBR® (Euroclone, Milan, Italy), 0.5 µL of both 10 µM forward and reverse primers, 1 µL cDNA, and 6.34 µL of H2O. All reactions were performed for 35 cycles using the following temperature profile: 95°C for 5 min (initial denaturation), 95°C for […] (denaturation), 55°C for […] (annealing), and 72°C for […] (extension) ([Nafie et al., 2020a]; [Sarhan et al., 2020]). Then, the Ct values were collected, with the folds of changes between all the samples.

[7] = tested on: MDA-MB-231 breast cancer cells; test: MTT cytotoxicity assay, MDA-MB-231; type: cell-based; settings: Homo sapiens, MDA-MB-231; MTT, 72 h, n = 3; read-out: IC50 MDA-MB-231 (Breast)
Experimental: as §1, §2

SMILES	IC50 [1]	Total apoptotic cell death (annexin V-positive cells) (KF-28 cells [2])	IC50 [3]	IC50 [4]	IC50 [5]	Bcl-2 expression, maximum decrease (KF-28 cells [6])	Pim-1 kinase expression, maximum decrease (KF-28 cells [6])	bax mRNA level, maximum increase (KF-28 cells [6])	caspase 3 mRNA level, maximum increase (KF-28 cells [6])	caspase 9 mRNA level, maximum increase (KF-28 cells [6])	p53 mRNA relative expression (KF-28 cells [6])	puma mRNA level, maximum increase (KF-28 cells [6])	IC50 [7]	caspase 8 mRNA level, maximum increase (KF-28 cells [6])
Cc1[nH]c(=NN=C2CCC(=NN=c3[nH]c(C)c(N=Nc4ccccc4)s3)CC2)sc1N=Nc1ccccc1 [5a, 1,4-Bis((5-phenylazo-4-methylthiazol-2-ylidene)hydrazono)cyclohexane]	> 200 µM	38.21%	7.08 µM	> 200 µM	77.9 µM	≈ 0.5 fold	≈ 0.31 fold	~5.2 fold	≈ 6.2 fold	~5.6 fold	≈ 4.07 fold	≈ 5.08 fold		
Cc1[nH]c(=NN=C2CCC(=NN=c3[nH]c(C)c(N=Nc4ccccc4Cl)s3)CC2)sc1N=Nc1ccccc1Cl [5f, 1,4-Bis((5-(2-chlorophenylazo)-4-methylthiazol-2-ylidene)hydrazono)cyclohexane]	> 200 µM		> 200 µM	> 200 µM	< 25 µM	≈ 0.76 fold	≈ 0.86 fold	~2.33 fold	≈ 6.9 fold	~6.0 fold	≈ 3.81 fold	≈ 3.14 fold	> 200 µM	~5.5 fold
Cc1ccc(N=Nc2sc(=NN=C3CCC(=NN=c4[nH]c(C)c(N=Nc5ccc(C)cc5)s4)CC3)[nH]c2C)cc1 [5b, 1,4-Bis((5-(4-tolylazo)-4-methylthiazol-2-ylidene)hydrazono)cyclohexane]	> 200 µM	18.77%	2.34 µM	> 200 µM	94.4 µM			~3.33 fold			≈ 3.41 fold	≈ 4.14 fold	> 200 µM	
